Reference: patent US10131652B2, “Pyrimidinyloxy benzene derivatives as herbicides” (E. I. DU PONT DE NEMOURS AND COMPANY, priority 2014, dated 2018)
Where two headings read alike, the source gives them in different places.

Tests used:
Format in all cases: in vivo
[1] = test system: yellow nutsedge (Cyperus esculentus); test: Test F pre-/postemergence plant response; details: Cyperus, pre-emergence, scale 0 to 100, read-out: Plant response rating, Nutsedge, Yellow
How it was run: (§1)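 Visual control ratings were scored 0 (no effect) to 100 (complete control) versus untreated plants after 14–21 greenhouse days. Compounds, formulated in a surfactant-containing non-phytotoxic solvent, were applied both to silt loam at planting (preemergence) and to 1- to 4-leaf plants 2–18 cm tall (postemergence).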

[2] = test system: goosegrass (Eleusine indica); test: Test F pre-/postemergence plant response; details: Eleusine indica, pre-emergence, scale 0 to 100, read-out: Plant response rating, Goosegrass
How it was run: as §1

[3] = test system: lambsquarters (Chenopodium album); test: Test F pre-/postemergence plant response; details: Chenopodium album, pre-emergence, scale 0 to 100, read-out: Plant response rating, Lambsquarters
How it was run: as §1

[4] = test system: nightshade (eastern black nightshade, Solanum ptycanthum); test: Test F pre-/postemergence plant response; details: Solanum, pre-emergence, scale 0 to 100, read-out: Plant response rating, Nightshade
How it was run: as §1

[5] = test system: velvetleaf (Abutilon theophrasti); test: Test F pre-/postemergence plant response; details: Abutilon theophrasti, pre-emergence, scale 0 to 100, read-out: Plant response rating, Velvetleaf
How it was run: as §1

[6] = test system: hairy beggarticks (Bidens pilosa); test: Test F pre-/postemergence plant response; details: Bidens pilosa, scale 0 to 100, read-out: Plant response rating, Beggarticks
How it was run: as §1

[7] = test system: kochia (Kochia scoparia); test: Test F pre-/postemergence plant response; details: Bassia scoparia, pre-emergence, scale 0 to 100, read-out: Plant response rating, Kochia
How it was run: as §1

[8] = test system: field bindweed (Convolvulus arvensis); test: Test F pre-/postemergence plant response; details: Convolvulus arvensis, scale 0 to 100, read-out: Plant response rating, Field Bindweed
How it was run: as §1

[9] = test system: Italian ryegrass (Lolium multiflorum); test: Test F pre-/postemergence plant response; details: Lolium multiflorum, scale 0 to 100, read-out: Plant response rating, Ryegrass, Italian; for pest or weed control at 16 g/ha: 16 g ai/ha; for pest or weed control at 31 g/ha: 31 g ai/ha; for pest or weed control at 125 g/ha: 125 g ai/ha
How it was run: as §1

[10] = test system: green foxtail (Setaria viridis); test: Test E pre-/postemergence plant response; details: scale 0 to 100, read-out: Plant response rating, Foxtail, Green; for pest or weed control at 16 g/ha: 16 g ai/ha; for pest or weed control at 31 g/ha: 31 g ai/ha; for pest or weed control at 62 g/ha: 62 g ai/ha; for pest or weed control at 125 g/ha: 125 g ai/ha
How it was run: (§2)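 Visual scores on a 0–100 scale (100 = complete control) were assigned against untreated controls 7–21 days after treatment in a controlled environment. Compounds, formulated with solvent plus surfactant, were applied to pre-emergence silt-loam sowings or to 1- to 4-leaf plants (2–18 cm) in potting medium.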

[11] = test system: Italian ryegrass (Lolium multiflorum); test: Test E pre-/postemergence plant response; details: scale 0 to 100, read-out: Plant response rating, Ryegrass, Italian; for pest or weed control at 16 g/ha: 16 g ai/ha; for pest or weed control at 31 g/ha: 31 g ai/ha; for pest or weed control at 62 g/ha: 62 g ai/ha; for pest or weed control at 125 g/ha: 125 g ai/ha
How it was run: as §2

[12] = post-emergence, 8 g ai/ha Postemergence
[13] = post-emergence, 16 g ai/ha Postemergence
[14] = post-emergence, 31 g ai/ha Postemergence
[15] = post-emergence, 62 g ai/ha Postemergence
[16] = post-emergence, 125 g ai/ha Postemergence
[17] = pre-emergence, 8 g ai/ha Preemergence
[18] = pre-emergence, 16 g ai/ha Preemergence
[19] = pre-emergence, 31 g ai/ha Preemergence
[20] = pre-emergence, 62 g ai/ha Preemergence
[21] = pre-emergence, 125 g ai/ha Preemergence

FC(F)c1cc(-c2ccccc2Oc2ncc(Br)cn2)no1 [Compound 62, 5-bromo-2-[2-[5-(difluoromethyl)-3-isoxazolyl]phenoxy]pyrimidine]
95%: pest or weed control at 31 g/ha ([3]; 31 g ai/ha, Preemergence) | pest or weed control at 62 g/ha ([3]; Preemergence) | pest or weed control at 125 g/ha ([7]; 125 g ai/ha, Preemergence)
90%: pest or weed control at 16 g/ha ([3]; 16 g ai/ha, Preemergence)
25%: pest or weed control at 62 g/ha ([10]; post-emergence, Postemergence) | pest or weed control at 125 g/ha ([11]; pre-emergence, Preemergence)
10%: pest or weed control at 31 g/ha [6, 14] | pest or weed control at 8 g/ha ([7]; 8 g ai/ha Preemergence) | pest or weed control at 62 g/ha ([9]; post-emergence, 62 g ai/ha, Postemergence) | pest or weed control at 125 g/ha ([9]; post-emergence, Postemergence) | pest or weed control at 16 g/ha ([11]; post-emergence, Postemergence)
70%: pest or weed control at 8 g/ha ([3]; 8 g ai/ha Preemergence) | pest or weed control at 31 g/ha ([4]; 31 g ai/ha Preemergence)
98%: pest or weed control at 62 g/ha ([4]; Preemergence)
65%: pest or weed control at 125 g/ha ([10]; post-emergence, Postemergence) | pest or weed control at 62 g/ha ([10]; pre-emergence, Preemergence)
15%: pest or weed control at 16 g/ha ([10]; post-emergence, Postemergence) | pest or weed control at 62 g/ha ([11]; pre-emergence, Preemergence)
50%: pest or weed control at 62 g/ha [6, 15] | pest or weed control at 62 g/ha [8, 15]
20%: pest or weed control at 31 g/ha ([7]; 31 g ai/ha, Preemergence) | pest or weed control at 31 g/ha ([10]; post-emergence, Postemergence) | pest or weed control at 16 g/ha ([10]; pre-emergence, Preemergence) | pest or weed control at 31 g/ha ([11]; post-emergence, Postemergence)
85%: pest or weed control at 125 g/ha ([10]; pre-emergence, Preemergence)
75%: pest or weed control at 125 g/ha ([2]; 125 g ai/ha Preemergence) | pest or weed control at 31 g/ha ([5]; 31 g ai/ha Preemergence) | pest or weed control at 125 g/ha [8, 16]
0%: pest or weed control at 8 g/ha ([1]; 8 g ai/ha Preemergence) | pest or weed control at 16 g/ha ([1]; 16 g ai/ha Preemergence) | pest or weed control at 31 g/ha ([1]; 31 g ai/ha Preemergence) | pest or weed control at 125 g/ha ([1]; 125 g ai/ha Preemergence) | pest or weed control at 62 g/ha ([1]; Preemergence) | pest or weed control at 8 g/ha ([2]; 8 g ai/ha Preemergence) | pest or weed control at 16 g/ha ([2]; 16 g ai/ha Preemergence) | pest or weed control at 31 g/ha ([2]; 31 g ai/ha Preemergence) | pest or weed control at 8 g/ha ([4]; 8 g ai/ha Preemergence) | pest or weed control at 16 g/ha ([4]; 16 g ai/ha Preemergence) | pest or weed control at 8 g/ha ([5]; 8 g ai/ha Preemergence) | pest or weed control at 8 g/ha [6, 17] | pest or weed control at 16 g/ha [6, 18] | pest or weed control at 31 g/ha [6, 19] | pest or weed control at 62 g/ha [6, 20] | pest or weed control at 125 g/ha [6, 21] | pest or weed control at 8 g/ha [8, 17] | pest or weed control at 16 g/ha [8, 18] | pest or weed control at 31 g/ha [8, 19] | pest or weed control at 62 g/ha [8, 20] | pest or weed control at 125 g/ha [8, 21] | pest or weed control at 8 g/ha [9, 12] | pest or weed control at 16 g/ha ([9]; post-emergence, Postemergence) | pest or weed control at 31 g/ha ([9]; post-emergence, Postemergence) | pest or weed control at 8 g/ha [9, 17] | pest or weed control at 16 g/ha ([9]; pre-emergence, Preemergence) | pest or weed control at 31 g/ha ([9]; pre-emergence, Preemergence) | pest or weed control at 62 g/ha ([9]; pre-emergence, Preemergence) | pest or weed control at 16 g/ha ([11]; pre-emergence, Preemergence) | pest or weed control at 31 g/ha ([11]; pre-emergence, Preemergence)
40%: pest or weed control at 8 g/ha [8, 12] | pest or weed control at 16 g/ha [8, 13] | pest or weed control at 125 g/ha ([9]; pre-emergence, Preemergence) | pest or weed control at 31 g/ha ([10]; pre-emergence, Preemergence)
80%: pest or weed control at 125 g/ha [6, 16]
35%: pest or weed control at 16 g/ha ([5]; 16 g ai/ha Preemergence) | pest or weed control at 62 g/ha ([7]; Preemergence) | pest or weed control at 31 g/ha [8, 14] | pest or weed control at 125 g/ha ([11]; post-emergence, Postemergence)
5%: pest or weed control at 62 g/ha ([2]; Preemergence) | pest or weed control at 8 g/ha [6, 12] | pest or weed control at 16 g/ha [6, 13]
100%: pest or weed control at 125 g/ha ([3]; 125 g ai/ha, Preemergence) | pest or weed control at 125 g/ha ([4]; 125 g ai/ha Preemergence) | pest or weed control at 125 g/ha ([5]; 125 g ai/ha Preemergence) | pest or weed control at 62 g/ha ([5]; Preemergence)
30%: pest or weed control at 62 g/ha ([11]; post-emergence, Postemergence)
